# Literature values in US9775828B2, “Pharmaceutical composition with increased solubility by using saccharin” (University-Industry Foundation, Yonsei University, priority 2014, dated 2017).
# Settings: when administered to the oral cavity and the nasal cavity
structure (smiles),measurement,value
"CN(C)CCc1c[nH]c2ccc(C[C@H]3COC(=O)N3)cc12 [Zolmitriptan, (S)-4-{{3-[2-(dimethylaminoethyl)]-1H-indol-5-1}methyl}-2-oxazolidinone]",bioavailability,about 40%
